# Laboratory results as given in article PMC12352625, “Double crossed? Structural and computational studies of an unusually crosslinked haem in Methylococcus capsulatus cytochrome P460” (Chemical Science, 2025).
# Target: T1, McP460 (cytochrome P460 from Methylococcus capsulatus (Bath)) (Methylococcus capsulatus, UniProt G1UBD9)
# T1 construct: gene MCA0524; recombinant from E. coli; covalent c-type P460 haem (Cys140, Cys143, His144, Lys78)
# T1 sequence (G1UBD9 18-161): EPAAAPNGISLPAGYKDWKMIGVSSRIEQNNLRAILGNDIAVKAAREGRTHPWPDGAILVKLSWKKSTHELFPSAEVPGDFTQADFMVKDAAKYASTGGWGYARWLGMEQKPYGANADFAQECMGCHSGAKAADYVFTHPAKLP
# Experiment: DCPIP reduction assay; N2O by GC-MS; nitrite by Griess assay
# Assay type: biochemical
# Conditions: 5 uM enzyme, 6 uM PMS, 2 mM [Ru(NH3)6]Cl3, 0-1000 uM hydroxylamine for product assays; anaerobic or aerobic
smiles,measurement,value
NO [hydroxylamine],DCPIP reduction assay; N2O by GC-MS; nitrite by Griess assay,"assays were carried out to assess the protein's ability to oxidise hydroxylamine, and product formation"
